The values below are quoted from earlier work in patent publication US6555583B2, “Therapies for treating pulmonary diseases” (SmithKline Beecham Corporation, priority 1998, dated 2003).

Structures are written as SMILES.

The conditions of the data set: rolipram developed as an antidepressant.

On to `COc1ccc(C2CNC(=O)C2)cc1OC1CCCC1` (stereo not shown) [rolipram], for which the “side effects in clinical studies” value was “psychotropic activity and produces gastrointestinal effects”.
